Results on 6 compounds are retold here after ChEMBL document CHEMBL1201862, “PubChem BioAssay data set” (2004).

Molecules are shown by their SMILES. Activity calls are given as the source filed them. For most assays here, no stated cut-off is given here; in the data, actives have a measured IC50 and inactives only a lower limit.

Assay [1] has as its system HEK293. The experiment in a line: cells. The assay is classed as functional, cell-based. To be noted: Homo sapiens.
The subject of assay [2] is HEK293. Put plainly: cells. In kind it is functional, cell-based. To be noted: Homo sapiens. The source holds these as a separate data set.
Assay [3] concerns the target T1, Nucleotide-binding oligomerization domain-containing protein 2 (Homo sapiens, UniProt Q9HC29). Put plainly: inhibition of NOD2-driven NF-kB reporter – cell-based, luminescence, uHTS, HEK293 (AID 1566). In kind it is functional.
Assay [4] concerns HEK293. The experiment in a line: NOD2 signaling inhibitors in MDP-stimulated cells, cell-based, uHTS, luminescence (AID 2001). In kind it is functional. To be noted: Homo sapiens.
Assay [5] concerns HEK293. Put plainly: inhibition of NOD1-driven NF-kB reporter – cell-based, luminescence, uHTS, primary screen (AID 1578). The assay is classed as functional. To be noted: Homo sapiens.
Assay [6] addresses Dual specificity tyrosine-phosphorylation-regulated kinase 1A (Rattus norvegicus, UniProt Q63470). The assay is classed as biochemical, Homo sapiens.
For assay [7], the system named is HEK293. The experiment in a line: cells. The assay is classed as functional, cell-based. To be noted: Homo sapiens. The source holds these as a separate data set.
Assay [8] addresses Alkaline phosphatase, placental type (Homo sapiens, UniProt P05187). Put plainly: human placental alkaline phosphatase inhibition – biochemical, luminescence, confirmation (AID 1512). The assay is classed as functional.
The target in assay [9] is T2, Alkaline phosphatase, tissue-nonspecific isozyme (Homo sapiens, UniProt P05186).
T2 sequence (P05186 whole entry): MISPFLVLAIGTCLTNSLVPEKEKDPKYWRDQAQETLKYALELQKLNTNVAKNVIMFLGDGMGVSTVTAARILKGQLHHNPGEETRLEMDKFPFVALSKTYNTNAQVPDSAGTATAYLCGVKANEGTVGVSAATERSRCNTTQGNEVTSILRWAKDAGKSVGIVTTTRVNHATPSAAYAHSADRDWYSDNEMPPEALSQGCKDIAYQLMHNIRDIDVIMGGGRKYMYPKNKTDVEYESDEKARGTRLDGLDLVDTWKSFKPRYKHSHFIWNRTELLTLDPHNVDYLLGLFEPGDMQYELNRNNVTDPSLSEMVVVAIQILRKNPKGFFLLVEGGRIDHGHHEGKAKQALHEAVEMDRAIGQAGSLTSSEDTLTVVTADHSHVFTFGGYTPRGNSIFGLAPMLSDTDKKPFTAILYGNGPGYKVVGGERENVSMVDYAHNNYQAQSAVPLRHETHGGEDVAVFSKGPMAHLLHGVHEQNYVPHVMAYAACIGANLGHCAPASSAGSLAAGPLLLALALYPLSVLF
Put plainly: potency against alkaline phosphatase TNAP – biochemical, luminescent, dose response, SAR follow-up (AID 1056).

In assay [10] the target is Voltage-dependent T-type calcium channel subunit alpha-1H (Homo sapiens, UniProt O95180). Put plainly: human CACNA1H calcium influx blockade – cell-based, synthetic library set 1, calcium flux (AID 493022). The assay is classed as functional.
The target of another assay is Hexokinase (Trypanosoma brucei, UniProt Q38C41). Put plainly: Confirmation assay for inhibitors of Trypanosoma brucei hexokinase 1-Analogue-first series. [Related pubchem assays (depositor defined):AID1430, AID1632, AID2516, AID2560, AID2579, AID2600, AID449725, AID492951]. In kind it is functional.
Assay [11] deals with Dual specificity protein phosphatase 3 (Homo sapiens, UniProt P51452). Put plainly: SAR VHR1 Fluorescent Assay for In Vitro dose response studies Set 2. [Related pubchem assays (depositor defined):AID1654, AID1661, AID1878]. The assay is classed as functional.
In assay [12] the target is T3, Tyrosine-protein phosphatase non-receptor type 7 (Homo sapiens, UniProt P35236).
T3 sequence (P35236 whole entry): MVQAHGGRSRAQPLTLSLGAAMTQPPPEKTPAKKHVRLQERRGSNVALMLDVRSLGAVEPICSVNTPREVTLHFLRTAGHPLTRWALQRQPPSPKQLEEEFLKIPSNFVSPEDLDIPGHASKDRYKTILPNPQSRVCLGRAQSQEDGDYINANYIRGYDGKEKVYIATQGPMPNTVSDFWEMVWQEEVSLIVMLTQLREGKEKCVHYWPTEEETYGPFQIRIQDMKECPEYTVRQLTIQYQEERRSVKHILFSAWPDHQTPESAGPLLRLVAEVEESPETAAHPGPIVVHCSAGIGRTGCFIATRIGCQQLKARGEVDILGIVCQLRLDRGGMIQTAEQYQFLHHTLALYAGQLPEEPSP
Put plainly: inhibition of hematopoietic tyrosine phosphatase HePTP – biochemical, set 2, SAR follow-up (AID 449736). The assay is classed as functional.

For assay [13], the target named is T3, Tyrosine-protein phosphatase non-receptor type 7. The experiment in a line: redox-active compounds inhibiting HePTP phosphatase – biochemical, fluorescence, mechanism study (AID 2068). In kind it is functional.
Assay [14] concerns the target Tyrosine-protein phosphatase non-receptor type 12 (Homo sapiens, UniProt Q05209). Put plainly: SAR Selectivity Analysis of small molecule inhibitors of PEST using pCAP in a fluorescence assay. [Related pubchem assays (depositor defined):AID1779, AID1784, AID2135]. The assay is classed as functional.
Assay [15] concerns the target T4, Tyrosine-protein phosphatase non-receptor type 22 (Homo sapiens, UniProt Q9Y2R2).
T4 sequence (Q9Y2R2 whole entry): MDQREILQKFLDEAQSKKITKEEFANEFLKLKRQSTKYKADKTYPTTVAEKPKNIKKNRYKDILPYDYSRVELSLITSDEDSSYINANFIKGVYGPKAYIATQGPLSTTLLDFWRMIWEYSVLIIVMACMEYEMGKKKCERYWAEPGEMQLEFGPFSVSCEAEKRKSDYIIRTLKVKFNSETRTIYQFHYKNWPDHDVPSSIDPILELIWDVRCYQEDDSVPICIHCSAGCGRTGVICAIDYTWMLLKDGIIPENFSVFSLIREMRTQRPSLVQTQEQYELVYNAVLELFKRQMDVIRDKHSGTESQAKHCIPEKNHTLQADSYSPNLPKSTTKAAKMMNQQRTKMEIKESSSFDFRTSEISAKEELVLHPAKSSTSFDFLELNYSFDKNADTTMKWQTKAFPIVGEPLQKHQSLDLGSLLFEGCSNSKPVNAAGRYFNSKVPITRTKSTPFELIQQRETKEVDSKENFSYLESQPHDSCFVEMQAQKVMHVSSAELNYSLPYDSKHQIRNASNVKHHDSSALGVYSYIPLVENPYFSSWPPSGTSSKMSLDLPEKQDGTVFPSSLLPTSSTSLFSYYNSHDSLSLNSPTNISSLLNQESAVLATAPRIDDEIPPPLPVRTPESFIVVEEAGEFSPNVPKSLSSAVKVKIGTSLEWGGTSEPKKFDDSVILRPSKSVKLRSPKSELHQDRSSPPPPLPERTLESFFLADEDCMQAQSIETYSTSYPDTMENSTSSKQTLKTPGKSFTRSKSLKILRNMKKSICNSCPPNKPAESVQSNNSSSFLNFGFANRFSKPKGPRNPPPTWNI
The experiment in a line: inhibition of lymphoid tyrosine phosphatase LYP – biochemical, pCAP fluorogenic substrate, fluorescence, set 3, SAR follow-up (AID 449727). The assay is classed as functional.

In assay [16] the target is T5, Dual specificity protein phosphatase 6 (Rattus norvegicus, UniProt Q64346).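 Further: confirmatory in vitro dose-response testing of MKP-3 inhibition; recombinant His-tagged MKP-3 made in E. coli BL21 with OMFP substrate.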
T5 sequence (Q64346 whole entry): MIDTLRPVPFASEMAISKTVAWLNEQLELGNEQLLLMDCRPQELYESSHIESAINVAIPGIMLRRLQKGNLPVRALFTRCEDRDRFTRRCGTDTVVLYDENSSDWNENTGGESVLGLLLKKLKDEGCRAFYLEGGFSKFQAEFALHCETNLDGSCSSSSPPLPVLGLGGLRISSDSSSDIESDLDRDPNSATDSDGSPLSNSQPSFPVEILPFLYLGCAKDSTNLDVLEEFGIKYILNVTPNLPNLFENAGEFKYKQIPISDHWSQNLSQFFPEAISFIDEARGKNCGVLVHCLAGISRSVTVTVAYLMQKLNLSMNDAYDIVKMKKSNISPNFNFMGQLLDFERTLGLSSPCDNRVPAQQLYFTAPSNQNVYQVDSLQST
The assay is classed as functional.

Assay [17] concerns the target T4, Tyrosine-protein phosphatase non-receptor type 22. The experiment in a line: SAR LYP1 Fluorescent Assay using OMFP substrate for In Vitro dose response studies - Set 3. [Related pubchem assays (depositor defined):AID1779, AID1784, AID2140, AID2686]. In kind it is functional.
Assay [18] concerns the target T1, Nucleotide-binding oligomerization domain-containing protein 2. The experiment in a line: PubChem AID 2334. In kind it is functional.
The subject of assay [19] is HEK293. Put plainly: cells. To be noted: Homo sapiens.
Assay [20] addresses Nucleotide-binding oligomerization domain-containing protein 1 (Homo sapiens, UniProt Q9Y239). The experiment in a line: blockers of NOD1 pathway activity – revised, SAR follow-up (AID 2333). In kind it is functional.
The target in a further assay is Tumor necrosis factor (Homo sapiens, UniProt P01375). Put plainly: analog potency on TNFa NF-kB signaling – cell-based, revised, SAR follow-up (AID 2337). The assay is classed as functional.
Sequence of Tumor necrosis factor (P01375 whole entry): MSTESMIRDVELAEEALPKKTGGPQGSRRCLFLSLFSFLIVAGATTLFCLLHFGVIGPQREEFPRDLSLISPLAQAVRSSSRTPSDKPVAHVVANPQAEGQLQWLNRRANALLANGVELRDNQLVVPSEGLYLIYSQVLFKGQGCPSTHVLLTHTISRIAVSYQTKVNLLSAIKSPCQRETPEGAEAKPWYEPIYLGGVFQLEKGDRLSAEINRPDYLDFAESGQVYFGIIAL

T1 sequence (Q9HC29 whole entry, the tested form may be a part): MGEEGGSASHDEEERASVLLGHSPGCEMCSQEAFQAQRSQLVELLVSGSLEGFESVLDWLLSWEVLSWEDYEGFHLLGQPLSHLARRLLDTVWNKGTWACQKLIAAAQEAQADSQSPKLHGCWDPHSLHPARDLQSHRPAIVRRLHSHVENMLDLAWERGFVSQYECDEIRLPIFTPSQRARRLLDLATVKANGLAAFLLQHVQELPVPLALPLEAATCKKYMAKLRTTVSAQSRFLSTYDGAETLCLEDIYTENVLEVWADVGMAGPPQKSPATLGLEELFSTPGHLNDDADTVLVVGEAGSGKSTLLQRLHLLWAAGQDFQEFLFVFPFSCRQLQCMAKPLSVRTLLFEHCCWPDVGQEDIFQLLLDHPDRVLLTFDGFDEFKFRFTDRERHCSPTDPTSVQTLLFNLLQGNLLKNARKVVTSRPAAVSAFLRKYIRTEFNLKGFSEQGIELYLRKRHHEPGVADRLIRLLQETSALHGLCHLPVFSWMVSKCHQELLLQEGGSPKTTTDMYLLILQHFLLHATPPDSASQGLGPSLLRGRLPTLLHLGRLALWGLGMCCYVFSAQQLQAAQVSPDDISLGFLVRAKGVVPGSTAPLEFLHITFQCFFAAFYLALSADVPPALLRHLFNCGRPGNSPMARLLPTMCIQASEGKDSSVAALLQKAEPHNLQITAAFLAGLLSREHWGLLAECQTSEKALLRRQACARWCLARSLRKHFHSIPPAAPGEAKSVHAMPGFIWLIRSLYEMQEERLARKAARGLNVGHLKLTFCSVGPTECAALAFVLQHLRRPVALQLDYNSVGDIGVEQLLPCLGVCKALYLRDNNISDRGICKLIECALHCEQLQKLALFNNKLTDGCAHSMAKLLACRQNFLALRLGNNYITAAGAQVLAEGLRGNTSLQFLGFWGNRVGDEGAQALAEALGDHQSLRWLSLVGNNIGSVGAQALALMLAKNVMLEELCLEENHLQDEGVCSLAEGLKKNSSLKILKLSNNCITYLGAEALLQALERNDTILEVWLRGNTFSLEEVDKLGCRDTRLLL
Sequence of Alkaline phosphatase, placental type (P05187 whole entry): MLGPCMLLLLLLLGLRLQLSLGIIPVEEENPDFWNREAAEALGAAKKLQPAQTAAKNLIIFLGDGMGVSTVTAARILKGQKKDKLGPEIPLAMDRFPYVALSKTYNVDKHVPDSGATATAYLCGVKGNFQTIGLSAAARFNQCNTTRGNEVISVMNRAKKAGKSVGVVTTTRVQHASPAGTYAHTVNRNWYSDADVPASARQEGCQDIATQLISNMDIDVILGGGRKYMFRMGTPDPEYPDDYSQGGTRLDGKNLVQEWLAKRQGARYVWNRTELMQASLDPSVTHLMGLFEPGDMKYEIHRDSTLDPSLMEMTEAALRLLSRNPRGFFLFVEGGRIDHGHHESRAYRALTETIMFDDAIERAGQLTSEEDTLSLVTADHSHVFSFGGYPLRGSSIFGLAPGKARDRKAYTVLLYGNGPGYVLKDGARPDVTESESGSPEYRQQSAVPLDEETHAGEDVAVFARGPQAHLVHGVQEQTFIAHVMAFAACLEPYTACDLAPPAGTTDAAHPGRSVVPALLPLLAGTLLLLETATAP
Sequence of Hexokinase (Q38C41 whole entry): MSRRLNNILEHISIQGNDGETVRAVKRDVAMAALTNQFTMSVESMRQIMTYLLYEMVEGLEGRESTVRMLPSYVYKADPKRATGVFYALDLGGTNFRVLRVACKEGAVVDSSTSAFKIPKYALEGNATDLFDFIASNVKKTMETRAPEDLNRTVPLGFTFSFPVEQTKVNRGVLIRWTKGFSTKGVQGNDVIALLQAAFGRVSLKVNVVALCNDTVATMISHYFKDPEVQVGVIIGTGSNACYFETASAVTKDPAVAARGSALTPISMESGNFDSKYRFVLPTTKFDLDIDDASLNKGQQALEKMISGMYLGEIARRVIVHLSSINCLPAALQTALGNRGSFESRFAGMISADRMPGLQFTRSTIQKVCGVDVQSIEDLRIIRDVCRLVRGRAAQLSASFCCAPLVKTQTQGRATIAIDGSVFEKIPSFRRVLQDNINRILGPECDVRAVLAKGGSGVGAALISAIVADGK
Sequence of Tyrosine-protein phosphatase non-receptor type 12 (Q05209 whole entry): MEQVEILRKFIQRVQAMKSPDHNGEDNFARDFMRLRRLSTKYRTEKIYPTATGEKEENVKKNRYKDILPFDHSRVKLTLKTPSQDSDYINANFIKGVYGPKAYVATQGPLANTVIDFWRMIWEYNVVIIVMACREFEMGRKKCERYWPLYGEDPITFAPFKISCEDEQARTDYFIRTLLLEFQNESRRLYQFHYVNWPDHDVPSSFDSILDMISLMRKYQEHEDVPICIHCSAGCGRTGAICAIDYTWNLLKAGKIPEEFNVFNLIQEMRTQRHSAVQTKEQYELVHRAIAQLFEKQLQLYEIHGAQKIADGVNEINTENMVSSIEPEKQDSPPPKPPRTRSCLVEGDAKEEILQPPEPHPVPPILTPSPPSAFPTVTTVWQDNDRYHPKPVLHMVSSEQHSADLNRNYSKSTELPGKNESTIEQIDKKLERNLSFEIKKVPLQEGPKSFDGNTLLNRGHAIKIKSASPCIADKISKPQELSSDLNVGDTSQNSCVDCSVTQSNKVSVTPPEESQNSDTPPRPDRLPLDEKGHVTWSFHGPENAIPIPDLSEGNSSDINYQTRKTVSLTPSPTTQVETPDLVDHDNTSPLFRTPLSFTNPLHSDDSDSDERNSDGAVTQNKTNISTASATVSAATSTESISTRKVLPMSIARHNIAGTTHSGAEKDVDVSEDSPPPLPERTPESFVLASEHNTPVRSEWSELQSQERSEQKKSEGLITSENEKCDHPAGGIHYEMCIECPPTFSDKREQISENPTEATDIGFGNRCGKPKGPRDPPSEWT
Sequence of Dual specificity protein phosphatase 3 (P51452 whole entry): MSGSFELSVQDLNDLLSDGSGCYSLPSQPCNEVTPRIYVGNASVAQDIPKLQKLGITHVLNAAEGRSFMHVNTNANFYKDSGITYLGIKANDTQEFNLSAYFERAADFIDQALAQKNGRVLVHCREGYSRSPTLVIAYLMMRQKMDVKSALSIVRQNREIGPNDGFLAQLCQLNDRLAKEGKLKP
Sequence of Nucleotide-binding oligomerization domain-containing protein 1 (Q9Y239 whole entry, the tested form may be a part): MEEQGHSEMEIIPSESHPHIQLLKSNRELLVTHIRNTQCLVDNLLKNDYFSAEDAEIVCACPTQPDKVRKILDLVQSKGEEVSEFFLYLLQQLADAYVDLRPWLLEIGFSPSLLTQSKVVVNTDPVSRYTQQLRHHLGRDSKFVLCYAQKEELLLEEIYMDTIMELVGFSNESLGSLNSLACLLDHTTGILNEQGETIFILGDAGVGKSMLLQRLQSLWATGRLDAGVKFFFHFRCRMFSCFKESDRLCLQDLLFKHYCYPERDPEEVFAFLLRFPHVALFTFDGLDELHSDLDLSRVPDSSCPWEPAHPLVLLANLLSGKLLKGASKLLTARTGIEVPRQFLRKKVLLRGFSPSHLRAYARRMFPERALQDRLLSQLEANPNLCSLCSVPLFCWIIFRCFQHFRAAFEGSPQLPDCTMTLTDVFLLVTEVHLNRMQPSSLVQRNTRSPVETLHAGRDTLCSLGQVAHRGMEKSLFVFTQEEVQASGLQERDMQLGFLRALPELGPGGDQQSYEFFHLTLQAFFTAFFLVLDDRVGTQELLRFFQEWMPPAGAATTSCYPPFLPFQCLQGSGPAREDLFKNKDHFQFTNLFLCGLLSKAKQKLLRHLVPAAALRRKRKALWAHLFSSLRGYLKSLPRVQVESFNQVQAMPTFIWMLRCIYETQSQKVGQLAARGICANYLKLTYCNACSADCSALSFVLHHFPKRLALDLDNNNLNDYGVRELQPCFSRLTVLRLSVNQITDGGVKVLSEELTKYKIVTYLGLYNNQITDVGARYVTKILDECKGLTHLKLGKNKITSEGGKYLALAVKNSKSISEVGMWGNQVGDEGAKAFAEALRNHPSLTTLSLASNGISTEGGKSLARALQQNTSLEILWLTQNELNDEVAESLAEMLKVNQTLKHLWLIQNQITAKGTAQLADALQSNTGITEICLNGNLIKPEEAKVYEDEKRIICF

As a reminder, the IC50 is the midpoint of a concentration-inhibition curve. Usually EC50 stands for the concentration giving half of the maximal effect. As usually defined, the AC50 is the midpoint of the concentration-response curve, whichever way the signal moves. For `Clc1c(Cl)c(Cl)c2[nH]nnc2c1Cl`, the IC50 is 13.9 µM (active) with HEK293 [1], > 20 µM (inactive) in the assay with HEK293 [2], 7.94 µM (active) in the assay on HEK293 [4] and > 20 µM (inactive) in the assay with HEK293 [7]. Besides, the EC50 was 3.2 µM (active) in [3] and 2.24 µM (active) in the assay with HEK293 [5]. For the same compound, the AC50 in assay [6] was 5.99 µM (active).
On to `C=CCn1c(SCC(=O)c2ccc(O)c(O)c2)nnc1-c1ccc(Cl)cc1`, for which the IC50 in assay [8] is 11.8 µM (active); in assay [9], > 100 µM (inactive).
For the compound `CC(Oc1ccccc1)C(=O)Nc1nnc(-c2ccc(F)c(F)c2)o1` (configuration not stated), the EC50 in assay [10] is 10 µM (active).
For the compound `COc1ccc(Nc2cc(Cl)ccc2C(=O)O)cc1`, the IC50 on Hexokinase is > 25 µM (inactive).
Take `CCOc1cc(/C=C2/S/C(=N/c3ccc4ccccc4c3)NC2=O)cc(Cl)c1OCC(=O)O`: the IC50 was 0.48 µM (active) in [11]; 0.466 µM (active) in assay [12]; 0.373 µM (active) in assay [13]; 4.76 µM (active) in [14]; 12.3 µM (active) in assay [15]; 26.5 µM (active) in [16]. Also, the 50% inhibitory concentration (IC50) in assay [17] was 15.6 µM (active).
In the case of `N#Cc1ccc(C(=O)Nc2nc3ccccc3n2Cc2ccc(Cl)cc2)cc1`, the IC50 (in assay [18]; with HEK293 [19]; in assay [20]; at Tumor necrosis factor) was > 20 µM (inactive) each time.
